The molecules below were run against T1, progestin receptor from rabbit uterus (Oryctolagus cuniculus, UniProt P06186) (assay: Progestin receptor binding (3H-R5020 displacement)). Conditions: rabbit uterine cytosol, 4° C., 18 h, read-out: IC50: Binding affinity for the progestin receptor from rabbit uterus.
T1 construct: Cytosolic progestin receptor were obtained by mixing rabbit uterine tissue with a Tris buffer; from tissue; host or cells: rabbit uterus cytosol
Description: A progestin initiates a biological response by first binding to a progestin receptor. Affinity for progestin receptors was determined by measuring the ability of compounds to displace a progestin radioligand from those receptors in vitro. Cytosolic progestin receptor were obtained by mixing rabbit uterine tissue with a Tris buffer [0.1M Tris-Hcl, 1 mM Na2 EDTA, 1 mM dithiothreotol, 1 mM sodium molybdate, 1% glycerol, pH 7.4]. The tissue/buffer mixture was homogenized under ice-cold conditions. The homogenate was then centrifuged and the supernatant (cytosol preparation) was decanted and stored at -70° C. and thawed prior to use. The competitive binding assay was performed by mixing ^3 H-R5020, a progestin radioligand, with cytosol preparation and various concentrations of test compounds (prepared in DMSO with a final 5% DMSO concentration). This mixture was then incubated at 4° C. for about 18 hours. Non-specific binding was determined using an unlabelled ligand in excess. After the incubation period, the radioligand bound to receptor was separated from free radioligand using dextran-coated charcoal. The amount of bound radioligand was then determined by liquid scintillation counting. The data were expressed as the concentration of test compound that displaced 50% of the radioligand from the receptor (IC50)
Aspects of the application used in this procedure are described in the following: J. L. McGuire et al., Biochemistry 13, 319, 1974.

T1 sequence (P06186 whole entry): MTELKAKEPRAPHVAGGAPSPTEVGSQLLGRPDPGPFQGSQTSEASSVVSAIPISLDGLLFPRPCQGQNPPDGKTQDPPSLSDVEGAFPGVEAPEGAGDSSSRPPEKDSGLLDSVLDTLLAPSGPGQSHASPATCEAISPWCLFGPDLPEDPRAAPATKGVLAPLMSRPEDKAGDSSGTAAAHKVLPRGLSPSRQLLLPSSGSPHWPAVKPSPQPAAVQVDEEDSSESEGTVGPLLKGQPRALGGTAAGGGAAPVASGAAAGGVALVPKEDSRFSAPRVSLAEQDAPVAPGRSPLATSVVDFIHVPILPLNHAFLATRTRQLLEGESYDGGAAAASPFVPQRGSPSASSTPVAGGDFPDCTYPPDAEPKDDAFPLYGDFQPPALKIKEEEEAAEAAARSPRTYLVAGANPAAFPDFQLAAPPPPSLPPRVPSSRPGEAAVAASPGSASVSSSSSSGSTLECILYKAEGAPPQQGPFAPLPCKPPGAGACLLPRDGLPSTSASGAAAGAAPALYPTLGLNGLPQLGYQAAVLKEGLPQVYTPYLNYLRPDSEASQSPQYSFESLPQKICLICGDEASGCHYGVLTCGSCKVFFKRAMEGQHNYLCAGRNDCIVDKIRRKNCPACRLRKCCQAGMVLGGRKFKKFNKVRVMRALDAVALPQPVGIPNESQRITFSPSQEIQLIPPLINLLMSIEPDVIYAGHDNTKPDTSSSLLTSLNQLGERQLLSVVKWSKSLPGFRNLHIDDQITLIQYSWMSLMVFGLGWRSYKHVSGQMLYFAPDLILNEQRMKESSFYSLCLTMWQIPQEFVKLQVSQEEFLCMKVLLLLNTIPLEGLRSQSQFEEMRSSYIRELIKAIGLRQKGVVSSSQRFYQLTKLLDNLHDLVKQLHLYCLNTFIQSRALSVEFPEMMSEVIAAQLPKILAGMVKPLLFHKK

| Structure (SMILES) | IC50 [nM] |
| --- | --- |
| O=[N+]([O-])c1ccc(S(=O)(=O)N2CCCC(c3ccccc3)=N2)cc1 [Compound 53] | 2200 |
| O=S(=O)(c1ccc(F)cc1)N1CCCC(c2ccccc2)=N1 [Compound 54] | 780 |
| CCCCc1ccc(S(=O)(=O)N2CCCC(c3ccccc3)=N2)cc1 [Compound 55] | 21.9 |
| O=S(=O)(c1cccc2ccccc12)N1CCCC(c2ccccc2)=N1 [Compound 56] | 85.2 |
| O=[N+]([O-])c1cc(S(=O)(=O)N2CCCC(c3ccccc3)=N2)ccc1Cl [Compound 58] | 444 |
| O=S(=O)(c1ccc(F)cc1F)N1CCCC(c2ccccc2)=N1 [Compound 59] | 455 |
| O=S(=O)(c1ccc(Cl)c(Cl)c1)N1CCCC(c2ccccc2)=N1 [Compound 60] | 191 |
| O=S(=O)(c1ccc(C(F)(F)F)cc1)N1CCCC(c2ccccc2)=N1 [Compound 61] | 435 |
| O=[N+]([O-])c1cccc(S(=O)(=O)N2CCCC(c3ccccc3)=N2)c1 [Compound 62] | 157 |
| O=S(=O)(c1ccccc1)N1CCCC(c2ccccc2)=N1 [Compound 66] | 375 |
| O=[N+]([O-])c1cc(S(=O)(=O)N2CCCC(c3ccc(Cl)cc3)=N2)ccc1Cl [Compound 67] | 126 |
| O=S(=O)(c1cc(Cl)c(Cl)cc1Cl)N1CCCC(c2ccc(Cl)cc2)=N1 [Compound 68] | 13.4 |
| CCCCc1ccc(C2=NN(S(=O)(=O)c3cccc([N+](=O)[O-])c3)CCC2)cc1 [Compound 70] | 10000 |
| CCCCc1ccc(C2=NN(S(=O)(=O)c3ccc(CCCC)cc3)CCC2)cc1 [Compound 75] | 10000 |
| CCCCc1ccc(C2=NN(S(=O)(=O)c3ccccc3)CCC2)cc1 [Compound 76] | 10000 |
| O=S(=O)(c1ccccc1)N1CCCC(c2ccc(Cl)c(C(F)(F)F)c2)=N1 [Compound 83] | 4.83 |
| O=S(=O)(c1cc(Cl)ccc1Cl)N1CCCC(c2cccc(Cl)c2)=N1 [Compound 91] | 2.39 |
| Cc1ccc(S(=O)(=O)N2CCCC(c3cccc(Cl)c3)=N2)cc1 [Compound 92] | 23.9 |

| Structure (SMILES) | IC50 [nM] |
| --- | --- |
| O=S(=O)(c1ccc(Cl)cc1)N1CCCC(c2cccc(Cl)c2)=N1 [Compound 93] | 11.1 |
| O=S(=O)(c1ccc(I)cc1)N1CCCC(c2cccc(Cl)c2)=N1 [Compound 96] | 12.1 |
| O=S(=O)(c1cccc(C(F)(F)F)c1)N1CCCC(c2ccc(Cl)c(Cl)c2)=N1 [Compound 98] | 2.5 |
| O=S(=O)(c1ccc(Cl)cc1)N1CCCC(c2ccc(Br)cc2)=N1 [Compound 99] | 21 |
| O=S(=O)(c1ccc(Br)cc1)N1CCCC(c2ccc(Br)cc2)=N1 [Compound 100] | 23 |
| Cc1ccc(S(=O)(=O)N2CCCC(c3ccc(Br)cc3)=N2)cc1 [Compound 101] | 195 |
| O=S(=O)(c1cc(Cl)ccc1Cl)N1CCCC(c2ccc(Br)cc2)=N1 [Compound 102] | 9 |
| O=S(=O)(c1ccccc1)N1CCCC(c2ccc(Br)cc2)=N1 [Compound 103] | 149 |
| O=S(=O)(c1ccc(F)cc1)N1CCCC(c2ccc(Cl)c(Cl)c2)=N1 [Compound 106] | 7.11 |
| O=S(=O)(c1cc(Cl)c(Cl)cc1Cl)N1CCCC(c2ccc(Cl)c(Cl)c2)=N1 [Compound 107] | 7.45 |
| CCCCc1ccc(S(=O)(=O)N2CCCC(c3ccc(Cl)c(Cl)c3)=N2)cc1 [Compound 108] | 3.35 |
| O=S(=O)(c1ccc2c(c1)CCCC2)N1CCCC(c2ccc(Cl)c(Cl)c2)=N1 [Compound 114] | 6.5 |
| CCCCc1ccc(S(=O)(=O)N2CCCC(c3ccc(Cl)c(C(F)(F)F)c3)=N2)cc1 [Compound 116] | 8.77 |
| O=S(=O)(c1ccc(Cl)cc1)N1CCCC(c2ccc3ccccc3c2)=N1 [Compound 117] | 4.97 |
| O=S(=O)(c1cc(Cl)ccc1Cl)N1CCCC(c2ccc3ccccc3c2)=N1 [Compound 118] | 5.56 |
| O=S(=O)(c1cc(Cl)ccc1Cl)N1CCCC(c2ccc3c(c2)OCCO3)=N1 [Compound 123] | 557 |
| O=S(=O)(c1cccc(C(F)(F)F)c1)N1CCCC(c2ccc(Cl)c(C(F)(F)F)c2)=N1 [Compound 126] | 7.14 |
